The text below walks through data of PubChem BioAssay (NCI).

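Method: 48-hour compound exposure of cells in 96-well plates, five concentrations, linear interpolation of endpoints. At the GI50, growth is halved. TGI denotes the concentration required for complete inhibition of growth.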

Assay in all cases: inhibition of tumour cell growth, NCI panel, 48 h
The test system of test [1] is UACC-62 melanoma.
In test [2] the test system is ACHN renal.
The subject of test [3] is SW-620 colon.
In test [4] the test system is NCI-H23 lung.
For test [5], the system named is SF-295 CNS.
In test [6] the test system is HT29 colon.
Test [7] deals with PC-3 prostate.
For test [8], the system named is 786-0 renal.
For test [9], the system named is COLO 205 colon.
Test [10] concerns HCT-15 colon.

Consider `O=C1/C=C/[C@@H](O)[C@@H]2C[C@@H](O)C[C@H]2/C=C/CCC[C@H](CCc2ccc3ncccc3c2)O1`, for which the GI50 in test [1] is 0.303 µM; in test [2], 0.388 µM; in test [3], 0.265 µM; in test [4], 0.219 µM; in test [5], 0.351 µM; in [6], 0.0905 µM. Also, the GI50 is 0.313 µM in [7], 0.218 µM in [8], 0.19 µM in test [9] and 0.337 µM in test [10]. The TGI in test [1] was 8.44 µM; in test [2], > 29.7 µM; in [3] it was 0.768 µM; in [4], 1.18 µM; in [5], > 100 µM; in test [6], 0.555 µM. For the same compound, the TGI in test [7] was > 36 µM; in test [8], 0.504 µM; in test [9] it was 0.343 µM; in [10], 14.5 µM.

`Cc1cc(-c2nnc(/C=C/c3ccc4c(c3)OCO4)o2)n[nH]1`: the GI50 was 15.3 µM in [1]; 27.2 µM in test [2]; 2.85 µM in test [3]; 11.9 µM in [4]; 7.04 µM in test [5]; 13.8 µM in test [6]. For the same compound, the GI50 in test [7] is 7.87 µM; in test [8] it was 16.7 µM; in test [9], 15.4 µM; in [10], 11.4 µM. Moreover, the TGI is > 50 µM in test [1]; > 50 µM in [2]; 19.8 µM in test [3]; > 50 µM in test [4]; 38 µM in test [5]; 43.4 µM in [6]. Further, the TGI in [7], in test [8], in [9] and in [10] was > 50 µM each time.

As to `[N-]=[N+]=NCCCn1c2c(c3ccc([N+](=O)[O-])cc3c1=O)C(=O)c1cc3c(cc1-2)OCO3`, the GI50 was < 0.0211 µM in test [1]; < 0.0161 µM in test [2]; < 0.0285 µM in test [3]; < 0.01 µM in test [4]; < 0.012 µM in test [5]; 2.24 µM in test [7]. Also, the GI50 is < 0.0141 µM in test [8], 0.585 µM in test [9] and 1.42 µM in [10]. Also, the TGI in test [1] is 0.782 µM; in [2], 0.459 µM; in test [3], > 100 µM; in [4], < 0.01 µM; in test [5], < 0.0428 µM; in test [6] it was > 100 µM. Moreover, the TGI in [7] is > 100 µM; in test [8], < 0.025 µM; in test [9] it was > 100 µM; in test [10] it was > 100 µM.

Turning to `Cc1cc(C(=O)/C=C/c2ccc[nH]2)ccc1-n1ccc(C(F)(F)F)n1`, the GI50 in [1] was 21.4 µM; in test [2], 21.3 µM; in test [3] it was 10.7 µM; in [4], 14.9 µM; in test [5], 7.97 µM; in [6], 14.4 µM. For the same compound, the GI50 was 0.472 µM in [7], 3.54 µM in test [8], 21.8 µM in test [9] and 11.1 µM in test [10]. Further, the TGI in test [1], in test [2], in [3], in [4], in test [5] and in test [6] was > 100 µM in each case. Further, the TGI in [7] is 4.45 µM; in test [8], > 100 µM; in [9], > 100 µM; in test [10], > 100 µM.

`NCCCCCNc1noc(Cc2c[nH]c3cc(Br)ccc23)n1`: the GI50 in test [1] is 0.551 µM; in test [2] it was 9.02 µM; in test [3] it was 0.707 µM; in test [4] it was 1.76 µM; in [5], 2.53 µM; in test [6], 1.08 µM. In addition, the GI50 is 3.2 µM in test [7], 5.24 µM in test [8], 1.52 µM in test [9] and 0.834 µM in test [10]. The TGI in [1] amounted to 10.1 µM; in [2], 21.7 µM; in test [3], 16.9 µM; in test [4], 8.75 µM; in [5], 25.3 µM; in test [6], 10.3 µM. The TGI stood at 45.7 µM in test [7], 27.1 µM in test [8], 3.22 µM in test [9] and 17.9 µM in [10].

On to `CC(=O)Oc1ccc2c(c1)[C@@]1(C)CCCC(C)(C)[C@@H]1CC2`, for which the GI50 in test [1] is 17.6 µM; in test [2], 19.1 µM; in test [3] it was 28.2 µM; in test [4], 19.8 µM; in [5], 19.1 µM; in test [6], 31.7 µM. Further, the GI50 in [7] is 20.1 µM; in [8], 18.1 µM; in test [9], 21.9 µM; in test [10], 19.5 µM. In addition, the TGI is 32.8 µM in test [1]; 33.5 µM in test [2]; > 100 µM in [3]; 37.6 µM in [4]; 56.6 µM in test [5]; > 100 µM in test [6]. Further, the TGI in [7] was found to be 39 µM; in [8], 32.8 µM; in test [9], 53.6 µM; in test [10], 37.3 µM.

For `NC(=S)N=Nc1c(O)[nH]c2c(Cl)cc(Cl)cc12`, the TGI in test [1] was 34.1 µM; in test [2], > 100 µM; in test [3], > 100 µM; in test [4] it was > 100 µM; in test [5], 46.6 µM; in [6], 42 µM. Moreover, the TGI in [7] is 81.1 µM; in test [8], 92.9 µM; in test [9], 41.8 µM; in test [10] it was > 100 µM.

Turning to `Nc1c(C(=O)Nc2ccccn2)sc2nc3c(cc12)C(O)CCC3` (centres undefined), the GI50 in [1] is 1.75 µM; in test [2] it was 10.7 µM; in test [3] it was 1.62 µM; in test [4], 3.05 µM; in test [5], 1.74 µM; in test [6], 1.55 µM. Besides, the GI50 in [7] is 1.34 µM; in test [8] it was 1.95 µM; in [9], 2.51 µM; in [10], 1.69 µM. Further, the TGI in test [1], in [2], in test [3], in test [4], in [5] and in test [6] was > 50 µM in each case. Besides, the TGI in test [7], in test [8], in test [9] and in test [10] was > 50 µM in each case.
